Earlier results in patent US12630801B2, “Stem cell-derived Schwann cells” (MEMORIAL SLOAN-KETTERING CANCER CENTER, priority 2016, dated 2026).

Key:
Conditions in all cases: Yu et al. 2008; Cuny et al. 2008
ALK6 = ALK6 (Homo sapiens, UniProt O00238)
ALK2 = molecular target: T1, ALK2 (Homo sapiens, UniProt Q04771)
T1 sequence (Q04771 21-509): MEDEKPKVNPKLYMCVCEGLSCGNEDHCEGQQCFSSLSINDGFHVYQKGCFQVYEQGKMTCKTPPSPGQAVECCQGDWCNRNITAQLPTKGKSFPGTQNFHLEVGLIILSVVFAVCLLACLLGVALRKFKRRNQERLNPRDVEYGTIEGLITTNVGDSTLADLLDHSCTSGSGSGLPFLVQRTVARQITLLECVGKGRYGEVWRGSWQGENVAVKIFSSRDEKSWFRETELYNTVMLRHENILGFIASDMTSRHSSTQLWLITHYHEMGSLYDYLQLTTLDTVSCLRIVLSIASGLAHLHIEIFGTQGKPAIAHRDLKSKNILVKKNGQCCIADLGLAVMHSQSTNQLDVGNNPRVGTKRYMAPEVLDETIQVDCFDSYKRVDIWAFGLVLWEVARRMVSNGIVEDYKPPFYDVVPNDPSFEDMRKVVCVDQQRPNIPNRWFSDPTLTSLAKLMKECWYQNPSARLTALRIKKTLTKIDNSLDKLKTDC

ALK3 = ALK3 (Homo sapiens, UniProt P36894)
Chain of ALK3 (P36894 24-532, species assumed): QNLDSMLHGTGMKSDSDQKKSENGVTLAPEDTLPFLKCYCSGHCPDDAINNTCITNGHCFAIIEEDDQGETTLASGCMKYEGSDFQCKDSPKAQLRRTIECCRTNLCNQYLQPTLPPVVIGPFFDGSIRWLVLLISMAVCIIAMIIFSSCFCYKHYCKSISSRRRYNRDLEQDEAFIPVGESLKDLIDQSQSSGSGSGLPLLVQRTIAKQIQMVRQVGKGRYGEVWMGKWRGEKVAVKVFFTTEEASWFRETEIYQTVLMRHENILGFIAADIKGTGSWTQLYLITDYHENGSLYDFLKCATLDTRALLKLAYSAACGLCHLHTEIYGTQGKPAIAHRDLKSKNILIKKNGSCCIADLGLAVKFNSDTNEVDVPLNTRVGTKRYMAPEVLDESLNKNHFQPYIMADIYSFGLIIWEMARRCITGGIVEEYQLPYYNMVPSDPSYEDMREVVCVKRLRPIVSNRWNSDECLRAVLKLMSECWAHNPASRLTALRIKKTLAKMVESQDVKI

Chain of ALK6 (O00238 14-502): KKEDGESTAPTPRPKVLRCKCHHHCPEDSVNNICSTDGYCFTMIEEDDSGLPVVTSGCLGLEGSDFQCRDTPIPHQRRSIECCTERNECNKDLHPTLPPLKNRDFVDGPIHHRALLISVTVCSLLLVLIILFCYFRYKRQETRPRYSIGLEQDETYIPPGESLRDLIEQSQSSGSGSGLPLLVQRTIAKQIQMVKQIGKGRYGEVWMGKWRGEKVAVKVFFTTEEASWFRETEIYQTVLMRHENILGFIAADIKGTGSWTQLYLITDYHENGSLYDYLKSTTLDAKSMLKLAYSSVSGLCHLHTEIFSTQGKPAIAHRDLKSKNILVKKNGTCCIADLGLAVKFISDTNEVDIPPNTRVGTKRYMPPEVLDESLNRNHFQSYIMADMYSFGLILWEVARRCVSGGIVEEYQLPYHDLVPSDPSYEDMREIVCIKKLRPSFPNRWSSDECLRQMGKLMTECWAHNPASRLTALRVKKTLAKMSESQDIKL

c1ccc2c(-c3cnn4cc(-c5ccc(N6CCNCC6)cc5)cnc34)ccnc2c1 [LDN193189, 4-(6-(4-(piperazin-1-yl)phenyl)pyrazolo[1,5-a]pyrimidin-3-yl)quinoline]
highly potent small-molecule inhibitor: inhibition of ALK6 (ALK6) | inhibition of ALK2 (ALK2) | inhibition of ALK3 (ALK3)
